Read-outs that look alike come from different tables or passages of the source.
Tests used:
[1] = system: green peach aphid (Myzus persicae); assay: Myzus test (MYZUPE spray treatment); format: in vivo; settings: Myzus persicae, foliar, read-out: effect in % (aphids killed)
Excerpt: Solvent: 78 parts by weight of acetone
(§1) Solvent: 78.0 parts by weight of acetone

[2] = log P determination by HPLC (EEC Directive 79/831 Annex V.A8); format: physicochemical
Experimental: The measurements were carried out using an Agilent 1100 LC system with a 50*4.6 Zorbax Eclipse C18 1.8 μm column (oven temperature 55° C., flow rate 2.0 ml/min).
The following mobile phases were used:
Mobile phase A: acetonitrile+1000 μl of formic acid/l
Mobile phase B: Millipore water+900 μl of formic acid/l

[3] = system: caterpillars of the armyworm (Spodoptera frugiperda); assay: Spodoptera frugiperda test (SPODFR spray treatment); format: in vivo; settings: Spodoptera frugiperda, foliar, read-out: effect in % (caterpillars killed)
Excerpt: as §1

[4] = system: larvae of the mustard beetle (Phaedon cochleariae); assay: Phaedon test (PHAECO spray treatment); settings: Phaedon cochleariae, in Brassica rapa, foliar, read-out: effect in % (beetle larvae killed)
[5] = application rate 100 g/ha, Chinese cabbage leaf discs
[6] = reversed-phase HPLC, Zorbax Eclipse C18 column, by HPLC according to EEC Directive 79/831 Annex V.A8, read-out: log P
[7] = application rate 100 g/ha, maize leaf discs

With Cc1cc(I)cc(C(=O)NC2CCC2)c1NC(=O)c1cc(Cn2nnc(C(F)F)n2)nn1-c1ncccc1Cl [Example 280] the pest or weed control at 100 g/ha ([1]; in Brassica rapa) was no less than 80%, the chromatographic logP ([2]; log P) was 3.34 and the pest or weed control at 100 g/ha ([3]; in Zea mays) was no less than 80%. The pest or weed control at 100 g/ha [4] was no less than 80%.

Cc1cc(I)cc(C(=O)NCC#N)c1NC(=O)c1cc(Cn2nnc(C(F)F)n2)nn1-c1ncccc1Cl [Example 281] gave a pest or weed control at 100 g/ha ([1]; in Brassica rapa) of no less than 80%, a chromatographic logP ([2]; log P) of 2.68 and a pest or weed control at 100 g/ha ([3]; in Zea mays) of no less than 80%. The pest or weed control at 100 g/ha [4] was no less than 80%.

O=C(NC1CC1)c1cc(Cl)cc(Cl)c1NC(=O)c1cc(Cn2nnc(C(F)F)n2)nn1-c1ncccc1Cl [Example 284] gave a pest or weed control at 100 g/ha ([1]; in Brassica rapa) of no less than 80%, a chromatographic logP ([2]; log P) of 2.7 and a pest or weed control at 100 g/ha ([3]; in Zea mays) of no less than 80%. It also gave a pest or weed control at 100 g/ha [4] of no less than 80%.

In the case of CC(C)NC(=O)c1cc(Cl)cc(Cl)c1NC(=O)c1cc(Cn2nnc(C(F)F)n2)nn1-c1ncccc1Cl [Example 286], the pest or weed control at 100 g/ha ([1]; in Brassica rapa) is reported as no less than 80%, the chromatographic logP ([2]; log P) is reported as 2.91 and the pest or weed control at 100 g/ha ([3]; in Zea mays) is reported as no less than 80%. The pest or weed control at 100 g/ha [4] was no less than 80%.

Work on O=C(NCC1CC1)c1cc(Cl)cc(Cl)c1NC(=O)c1cc(Cn2nnc(C(F)F)n2)nn1-c1ncccc1Cl [Example 289] yielded a pest or weed control at 100 g/ha ([1]; in Brassica rapa) of no less than 80%, a chromatographic logP ([2]; log P) of 3.01 and a pest or weed control at 100 g/ha ([3]; in Zea mays) of no less than 80%. The pest or weed control at 100 g/ha [4] was no less than 80%.

Compound N#CCNC(=O)c1cc(Cl)cc(Cl)c1NC(=O)c1cc(Cn2nnc(C(F)F)n2)nn1-c1ncccc1Cl [Example 290] has a pest or weed control at 100 g/ha ([1]; in Brassica rapa) of no less than 80%, a chromatographic logP ([2]; log P) of 2.48 and a pest or weed control at 100 g/ha ([3]; in Zea mays) of no less than 80%. It also gave a pest or weed control at 100 g/ha [4] of no less than 80%.

In the case of CNC(=O)c1cc(Br)cc(C)c1NC(=O)c1cc(Cn2nnc(C(F)F)n2)nn1-c1ncccc1Cl [Example 296], the pest or weed control at 100 g/ha ([1]; in Brassica rapa) is reported as no less than 80%, the chromatographic logP ([2]; log P) is reported as 2.61 and the pest or weed control at 100 g/ha ([3]; in Zea mays) is reported as no less than 80%. For the same compound, the pest or weed control at 100 g/ha [4] was no less than 80%.

Cc1cc(Br)cc(C(=O)NC2CC2)c1NC(=O)c1cc(Cn2nnc(C(F)F)n2)nn1-c1ncccc1Cl [Example 298] gave a pest or weed control at 100 g/ha ([1]; in Brassica rapa) of no less than 80%, a chromatographic logP ([2]; log P) of 2.85 and a pest or weed control at 100 g/ha ([3]; in Zea mays) of no less than 80%. It also gave a pest or weed control at 100 g/ha [4] of no less than 80%.

For Cc1cc(Cl)cc(C(N)=O)c1NC(=O)c1cc(Cn2nnc(C(F)F)n2)nn1-c1ncccc1Cl [Example 304], the pest or weed control at 100 g/ha ([1]; in Brassica rapa) was no less than 80%, the chromatographic logP ([2]; log P) was 2.32 and the pest or weed control at 100 g/ha ([3]; in Zea mays) was no less than 80%. It also gave a pest or weed control at 100 g/ha [4] of no less than 80%.

NC(=O)c1cc(Cl)cc(Cl)c1NC(=O)c1cc(Cn2nnc(C(F)F)n2)nn1-c1ncccc1Cl [Example 305] showed a pest or weed control at 100 g/ha ([1]; in Brassica rapa) of no less than 80%, a chromatographic logP ([2]; log P) of 2.31 and a pest or weed control at 100 g/ha ([3]; in Zea mays) of no less than 80%. For the same compound, the pest or weed control at 100 g/ha [4] was no less than 80%.

In the case of Cc1cc(F)cc(C(=O)NC(C)(C)C)c1NC(=O)c1cc(Cn2nnc(C(F)F)n2)nn1-c1ncccc1Cl [Example 308], the pest or weed control at 100 g/ha ([1]; in Brassica rapa) is reported as no less than 80%, the chromatographic logP ([2]; log P) is reported as 2.9 and the pest or weed control at 100 g/ha ([3]; in Zea mays) is reported as no less than 80%. It also gave a pest or weed control at 100 g/ha [4] of no less than 80%.

For Cc1cc(Br)cc(C(=O)NC(C)(C)C)c1NC(=O)c1cc(Cn2nnc(C(F)F)n2)nn1-c1ncccc1Cl [Example 309], the pest or weed control at 100 g/ha ([1]; in Brassica rapa) was no less than 80%, the chromatographic logP ([2]; log P) was 3.36 and the pest or weed control at 100 g/ha ([3]; in Zea mays) was no less than 80%. It also gave a pest or weed control at 100 g/ha [4] of no less than 80%.

CNC(=O)c1cc(C#N)cc(C)c1NC(=O)c1cc(Cn2nnc(C(F)(F)F)n2)nn1-c1ccccc1Cl [Example 310] showed a pest or weed control at 100 g/ha [1, 5] of no less than 80%, a chromatographic logP [2, 6] of 3.09 and a pest or weed control at 100 g/ha [3, 7] of no less than 80%. The pest or weed control at 100 g/ha [4] was no less than 80%.

Work on CNC(=O)c1cc(C#N)cc(C)c1NC(=O)c1cc(Cn2nnc(C(F)(F)F)n2)nn1-c1c(Cl)cccc1Cl [Example 312] yielded a pest or weed control at 100 g/ha [1, 5] of no less than 80%, a chromatographic logP [2, 6] of 3.28 and a pest or weed control at 100 g/ha [3, 7] of no less than 80%. It also gave a pest or weed control at 100 g/ha [4] of no less than 80%.

CNC(=O)c1cc(Cl)cc(C)c1NC(=O)c1cc(Cn2nnc(C(F)(F)F)n2)nn1-c1cc(Cl)ccc1Cl [Example 313] showed a pest or weed control at 100 g/ha [1, 5] of no less than 80%, a chromatographic logP [2, 6] of 3.93 and a pest or weed control at 100 g/ha [3, 7] of no less than 80%. For the same compound, the pest or weed control at 100 g/ha [4] was no less than 80%.

CNC(=O)c1cc(C#N)cc(C)c1NC(=O)c1cc(Cn2nnc(C(F)(F)F)n2)nn1-c1ncccc1Br [Example 314] gave a pest or weed control at 100 g/ha [1, 5] of no less than 80%, a chromatographic logP [2, 6] of 3.58 and a pest or weed control at 100 g/ha [3, 7] of no less than 80%. For the same compound, the pest or weed control at 100 g/ha [4] was no less than 80%.

CNC(=O)c1cc(C#N)cc(C)c1NC(=O)c1cc(Cn2nnc(C(F)(F)F)n2)nn1-c1cc(Cl)ccc1Cl [Example 317] showed a pest or weed control at 100 g/ha [1, 5] of no less than 80%, a chromatographic logP [2, 6] of 3.48 and a pest or weed control at 100 g/ha [3, 7] of no less than 80%. For the same compound, the pest or weed control at 100 g/ha [4] was no less than 80%.

Compound CNC(=O)c1cc(C#N)cc(C)c1NC(=O)c1cc(Cn2nnc(C(F)(F)F)n2)nn1-c1ccccc1F [Example 318] has a pest or weed control at 100 g/ha [1, 5] of no less than 80%, a chromatographic logP [2, 6] of 2.92 and a pest or weed control at 100 g/ha [3, 7] of no less than 80%. For the same compound, the pest or weed control at 100 g/ha [4] was no less than 80%.

— patent US8324390B2, “Tetrazole-substituted anthranilamides as pesticides” (Bayer CropScience AG, priority 2008, dated 2012)
